Measurements from the NIST ThermoML archive (doi:10.1021/acs.jced.9b00424).
± gives the expanded uncertainty stated by the source.

Experiment: xn = mol fraction of the nth substance listed
Details: for surface tension liquid-gas: Pendant drop shape; for viscosity: 100 kPa, Concentric cylinders viscometry; for viscosity / mass density: Liquid; for mass density: 101 kPa, Vibrating tube method

CCCCCCCC(=O)O [octanoic acid] + CC(C)[C@@H]1CC[C@@H](C)C[C@H]1O
Details | mass density [kg/m3] | surface tension liquid-gas [mN/m] | viscosity [mPa·s]
297.82 K, x2 = 0 | – | 30.95 ± 3 | –
298 K, x2 = 0.333 | – | 25.72 ± 3 | –
298.11 K, x2 = 0.5 | – | 26.67 ± 3 | –
298.15 K, x2 = 0 | 917.2 ± 10 | – | 5.17 ± 0.21
298.15 K, x2 = 0.25 | 914.7 ± 10 | – | 7.61 ± 0.32
298.15 K, x2 = 0.333 | 914.1 ± 10 | – | 8.81 ± 0.37
298.15 K, x2 = 0.5 | 912.3 ± 10 | – | 12.18 ± 0.52
298.15 K, x2 = 0.667 | 910.3 ± 10 | – | 17.71 ± 0.78
298.15 K, x2 = 0.75 | 909.3 ± 10 | – | 20.82 ± 0.93
298.16 K, x2 = 0.25 | – | 23.32 ± 3 | –
298.2 K, x2 = 0.75 | – | 23.77 ± 3.1 | –
298.24 K, x2 = 0.667 | – | 20.94 ± 3 | –
302.68 K, x2 = 0 | – | 30.04 ± 3 | –
303.04 K, x2 = 0.5 | – | 25.67 ± 3 | –
303.15 K, x2 = 0 | 910.3 ± 10 | – | 4.54 ± 0.18
303.15 K, x2 = 0.25 | 908 ± 10 | – | 6.46 ± 0.27
303.15 K, x2 = 0.333 | 907.4 ± 10 | – | 7.37 ± 0.31
303.15 K, x2 = 0.5 | 905.7 ± 10 | – | 9.83 ± 0.42
303.15 K, x2 = 0.667 | 903.7 ± 10 | – | 13.65 ± 0.6
303.15 K, x2 = 0.75 | 902.7 ± 10 | – | 15.46 ± 0.69
303.69 K, x2 = 0.333 | – | 24.84 ± 3 | –
303.77 K, x2 = 0.667 | – | 20.53 ± 3 | –
303.85 K, x2 = 0.25 | – | 22.25 ± 3 | –
303.88 K, x2 = 0.75 | – | 23 ± 3 | –
307.73 K, x2 = 0.5 | – | 24.67 ± 3 | –
308.15 K, x2 = 0 | 903.8 ± 10 | – | 4.01 ± 0.16
308.15 K, x2 = 0.25 | 901.7 ± 10 | – | 5.54 ± 0.23
308.15 K, x2 = 0.333 | 901.1 ± 10 | – | 6.23 ± 0.26
308.15 K, x2 = 0.5 | 899.5 ± 10 | – | 8.06 ± 0.35
308.15 K, x2 = 0.667 | 897.6 ± 10 | – | 10.73 ± 0.47
308.15 K, x2 = 0.75 | 896.6 ± 10 | – | 11.94 ± 0.54
308.49 K, x2 = 0 | – | 28.56 ± 3 | –
308.53 K, x2 = 0.333 | – | 24.25 ± 3 | –
308.73 K, x2 = 0.25 | – | 21.65 ± 3 | –
308.75 K, x2 = 0.667 | – | 20.24 ± 3 | –
308.78 K, x2 = 0.75 | – | 22.27 ± 3 | –
312.93 K, x2 = 0 | – | 27.56 ± 3 | –
313.15 K, x2 = 0 | 897.6 ± 10 | – | 3.59 ± 0.15
313.15 K, x2 = 0.25 | 895.6 ± 10 | – | 4.81 ± 0.2
313.15 K, x2 = 0.333 | 895.1 ± 10 | – | 5.35 ± 0.22
313.15 K, x2 = 0.5 | 893.5 ± 10 | – | 6.72 ± 0.29
313.15 K, x2 = 0.667 | 891.7 ± 10 | – | 8.62 ± 0.38
313.15 K, x2 = 0.75 | 890.6 ± 10 | – | 9.42 ± 0.42
313.17 K, x2 = 0.333 | – | 23.9 ± 3 | –
313.35 K, x2 = 0.5 | – | 23.58 ± 3 | –
314.11 K, x2 = 0.25 | – | 21.16 ± 3 | –
314.26 K, x2 = 0.667 | – | 19.94 ± 3 | –
314.39 K, x2 = 0.75 | – | 21.81 ± 3 | –
317.8 K, x2 = 0 | – | 26.06 ± 3 | –
318.12 K, x2 = 0.5 | – | 22.74 ± 3 | –
318.15 K, x2 = 0 | 891.7 ± 10 | – | 3.2 ± 0.13
318.15 K, x2 = 0.25 | 889.9 ± 10 | – | 4.18 ± 0.17
318.15 K, x2 = 0.333 | 889.4 ± 10 | – | 4.6 ± 0.19
318.15 K, x2 = 0.5 | 887.9 ± 10 | – | 5.63 ± 0.24
318.15 K, x2 = 0.667 | 886.1 ± 10 | – | 7 ± 0.31
318.15 K, x2 = 0.75 | 885 ± 10 | – | 7.53 ± 0.34
318.42 K, x2 = 0.333 | – | 23.36 ± 3 | –
318.81 K, x2 = 0.667 | – | 19.7 ± 3 | –
318.88 K, x2 = 0.25 | – | 20.56 ± 3 | –
318.9 K, x2 = 0.75 | – | 21.15 ± 3 | –
322.15 K, x2 = 0 | – | 24.99 ± 3 | –
322.96 K, x2 = 0.333 | – | 22.93 ± 3 | –
322.97 K, x2 = 0.5 | – | 21.75 ± 3 | –
323.15 K, x2 = 0 | 886.2 ± 10 | – | 2.88 ± 0.12
323.15 K, x2 = 0.25 | 884.6 ± 10 | – | 3.68 ± 0.15
323.15 K, x2 = 0.333 | 884 ± 10 | – | 4 ± 0.17
323.15 K, x2 = 0.5 | 882.6 ± 10 | – | 4.79 ± 0.21
323.15 K, x2 = 0.667 | 880.9 ± 10 | – | 5.78 ± 0.26
323.15 K, x2 = 0.75 | 879.5 ± 10 | – | 6.12 ± 0.27
323.52 K, x2 = 0.667 | – | 19.52 ± 3 | –
323.58 K, x2 = 0.25 | – | 20.1 ± 3 | –
323.61 K, x2 = 0.75 | – | 20.72 ± 3 | –
327.39 K, x2 = 0 | – | 24.46 ± 3 | –
328.11 K, x2 = 0.75 | – | 20.22 ± 3 | –
328.15 K, x2 = 0 | 880.9 ± 10 | – | 2.609 ± 0.11
328.15 K, x2 = 0.25 | 879.5 ± 10 | – | 3.25 ± 0.13
328.15 K, x2 = 0.333 | 878.9 ± 10 | – | 3.51 ± 0.15
328.15 K, x2 = 0.5 | 877.6 ± 10 | – | 4.11 ± 0.18
328.15 K, x2 = 0.667 | 875.9 ± 10 | – | 4.83 ± 0.21
328.15 K, x2 = 0.75 | 874.4 ± 10 | – | 5.05 ± 0.23
328.35 K, x2 = 0.5 | – | 20.44 ± 3 | –
328.41 K, x2 = 0.333 | – | 22.47 ± 3 | –
328.48 K, x2 = 0.667 | – | 19.19 ± 3 | –
328.93 K, x2 = 0.25 | – | 19.73 ± 3 | –
331.72 K, x2 = 0 | – | 23.43 ± 3 | –
332.7 K, x2 = 0.75 | – | 19.65 ± 3 | –
332.78 K, x2 = 0.333 | – | 21.79 ± 3 | –
332.97 K, x2 = 0.5 | – | 19.47 ± 3 | –
333.15 K, x2 = 0 | 876 ± 10 | – | 2.372 ± 0.096
333.15 K, x2 = 0.25 | 874.7 ± 10 | – | 2.9 ± 0.12
333.15 K, x2 = 0.333 | 874.1 ± 10 | – | 3.1 ± 0.13
333.15 K, x2 = 0.5 | 872.9 ± 10 | – | 3.56 ± 0.15
333.15 K, x2 = 0.667 | 871.2 ± 10 | – | 4.09 ± 0.18
333.15 K, x2 = 0.75 | 869.4 ± 10 | – | 4.22 ± 0.19
333.27 K, x2 = 0.667 | – | 18.98 ± 3 | –
333.38 K, x2 = 0.25 | – | 19.41 ± 3 | –
338.15 K, x2 = 0 | 871.4 ± 10 | – | 2.166 ± 0.088
338.15 K, x2 = 0.25 | 870.1 ± 10 | – | 2.595 ± 0.11
338.15 K, x2 = 0.333 | 869.6 ± 10 | – | 2.753 ± 0.12
338.15 K, x2 = 0.5 | 868.4 ± 10 | – | 3.11 ± 0.13
338.15 K, x2 = 0.667 | 866.7 ± 10 | – | 3.49 ± 0.15
338.15 K, x2 = 0.75 | 864.6 ± 10 | – | 3.56 ± 0.16
343.15 K, x2 = 0 | 867.1 ± 10 | – | 1.985 ± 0.081
343.15 K, x2 = 0.25 | 865.9 ± 10 | – | 2.336 ± 0.097
343.15 K, x2 = 0.333 | 865.4 ± 10 | – | 2.461 ± 0.1
343.15 K, x2 = 0.5 | 864.3 ± 10 | – | 2.732 ± 0.12
343.15 K, x2 = 0.667 | 862.6 ± 10 | – | 3.02 ± 0.13
343.15 K, x2 = 0.75 | 860 ± 10 | – | 3.04 ± 0.14
348.15 K, x2 = 0 | 863 ± 10 | – | 1.826 ± 0.074
348.15 K, x2 = 0.25 | 862 ± 10 | – | 2.113 ± 0.088
348.15 K, x2 = 0.333 | 861.5 ± 10 | – | 2.212 ± 0.093
348.15 K, x2 = 0.5 | 860.4 ± 10 | – | 2.419 ± 0.1
348.15 K, x2 = 0.667 | 858.7 ± 10 | – | 2.625 ± 0.12
348.15 K, x2 = 0.75 | 855.7 ± 10 | – | 2.635 ± 0.12
353.15 K, x2 = 0 | 859.3 ± 10 | – | 1.683 ± 0.068
353.15 K, x2 = 0.25 | 858.3 ± 10 | – | 1.921 ± 0.08
353.15 K, x2 = 0.333 | 857.9 ± 10 | – | 1.996 ± 0.084
353.15 K, x2 = 0.5 | 856.7 ± 10 | – | 2.156 ± 0.093
353.15 K, x2 = 0.667 | 855.1 ± 10 | – | 2.301 ± 0.1
353.15 K, x2 = 0.75 | 851.6 ± 10 | – | 2.324 ± 0.1
